{"source": "patent US20030032834A1", "about": "“Aminoalcohol derivatives” (priority 2000, published 2003)", "tested_on": "increase in intravesical pressure induced by carbachol in anesthetized dog", "assay": "Effect on the increase in intravesical pressure induced by carbachol in anesthetized dog", "type": "in vivo", "settings": "0.01 mg/kg injected intravenously 5 minutes before carbachol (1.8 μg/kg); anesthetized female Beagle dogs; N = 5; Before 6.2 ± 1.1; *P < 0.01 vs Before (ANOVA)", "method": "Effect on the increase in intravesical pressure induced by carbachol in anesthetized dog\nFemale Beagle dogs weighing 8.0-15.0 kg were fasted for 24 hours and maintained under halothane anesthesia. A 12F Foley catheter was lubricated with water soluble jelly, inserted into the urethral orifice and advanced approximately 10 cm until the balloon tip was placed well inside the bladder. The balloon was then inflated with 5 ml of room air and catheter slowly withdrawn just part the first resistance that is felt at the bladder neck. Urine was completely drained out through the catheter, and 30 ml of biological saline was infused. The catheter was connected to pressure transducer, and intravesical pressure was continuously recorded. The test compound was injected intravenously at 5 minutes before the administration of carbachol (1.8 μg/kg).", "note": "Where a name gives a salt, the structure may show the parent alone.", "data": [{"smiles": "COC(=O)Nc1ccc(C(CCNC[C@H](O)COc2ccccc2)c2ccc(NC(=O)OC)cc2)cc1", "note": "[Test Compound (1), (2S)-1-Phenoxy-3-[3,3-bis[4-(methoxycarbonylamino)-phenyl]propylamino]-2-propanol sulfate (2:1) (crystal Form A)]", "values": [{"measurement": "Increase in intravesical pressure (mmHg)", "value": "4.9 ± 0.9* mmHg"}]}]}
